In ChEMBL document CHEMBL1158054, “Cytotoxic monotetrahydrofuran acetogenins from Disepalum plagioneurum” (J Nat Prod, 2006):

Tested on: KB
Assay: Cytotoxicity against human KB cells
Type: functional, cell-based

SMILES	IC50 [nM]
CCCCCCCCCCCC[C@@H](O)[C@H]1CC[C@H]([C@H](O)CC(CCCCC(O)CCCCCCCC2=C[C@H](C)OC2=O)OC(C)=O)O1 (some centres undefined) [PLAGIONEURIN A]	2.4
CCCCCCCCCCCC[C@H](O)[C@H]1CC[C@H]([C@@H](O)CC(CCCCC(O)CCCCCCCC2=C[C@H](C)OC2=O)OC(C)=O)O1 (some centres undefined) [PLAGIONEURIN B]	6.5
CCCCCCCCCCCC[C@@H](O)[C@H]1CC[C@H]([C@H](O)CC(CCCCC(=O)CCCCCCCC2=C[C@H](C)OC2=O)OC(C)=O)O1 (some centres undefined) [PLAGIONEURIN C]	26
CCCCCCCCCCCC[C@@H](O)[C@H]1CC[C@H]([C@H](O)CC(CCCCC(=O)CCCC[C@@H](O)CCC2=C[C@H](C)OC2=O)OC(C)=O)O1 (some centres undefined) [PLAGIONEURIN D]	2.8
CCCCCCCCCCCC[C@@H](O)[C@H]1CC[C@H]([C@H](O)CC(CCCCC(=O)CCCCC(O)CCC2=C[C@H](C)OC2=O)OC(C)=O)O1 (some centres undefined) [PLAGIONEURIN E]	2.6
CCCCCCCCCCCC[C@@H](O)[C@H]1CC[C@H]([C@H](O)CCCCC(O)CCCC[C@@H](O)CCC2=C[C@H](C)OC2=O)O1 (some centres undefined) [PLAGIONICIN A]	2
CCCCCCCCCCCC[C@@H](O)[C@H]1CC[C@@H]([C@@H](O)CCCCC(=O)CCCCC(O)CCC2=C[C@H](C)OC2=O)O1 (some centres undefined) [PLAGIONICIN B]	1400
CCCCCCCCCCCC[C@@H](O)[C@H]1CC[C@@H]([C@@H](O)CCCC(O)CCCCCC(O)C(O)CC2=C[C@H](C)OC2=O)O1 (some centres undefined) [PLAGIONICIN C]	6
CCCCCCCCCCCC[C@@H](O)[C@H]1CC[C@H]([C@H](O)CCCC(O)C(O)CCCCC(=O)CCC2=C[C@H](C)OC2=O)O1 (some centres undefined) [PLAGIONICIN D]	26
